Reference: ChEMBL document CHEMBL4385630, “The synthesis and evaluation of quinolinequinones as anti-mycobacterial agents” (2019)
Converted amounts (≈) assume the structure as drawn. The source made the active and inactive calls. No cut-off for these calls is given here.

Key:
[1] = Electrochemical behavior of the compound in acetonitrile assessed as redox potential E2 at 1 mM using Ag/Ag+ electrode by cyclic voltammetry
[2] = Electrochemical behavior of the compound in acetonitrile assessed as redox potential E1 at 1 mM using Ag/Ag+ electrode by cyclic voltammetry
[3] = system: Mycobacterium tuberculosis; test: Antimycobacterial activity against Mycobacterium tuberculosis MC2 6230 assessed as reduction in cell viability incubated for 5 days by resazurin based method; assay type: functional; settings: MC2 6230, 120 h
[4] = Electrochemical behavior of the compound in acetonitrile/tolunene assessed as redox potential E1 at 1 mM using Ag/Ag+ electrode by cyclic voltammetry
[5] = Electrochemical behavior of the compound in acetonitrile/tolunene assessed as redox potential E2 at 1 mM using Ag/Ag+ electrode by cyclic voltammetry
[6] = system: Mycobacterium tuberculosis; test: Antimycobacterial activity against Mycobacterium tuberculosis incubated for 7 days by resazurin dye based assay; assay type: functional; settings: 168 h
[7] = system: Mycolicibacterium smegmatis MC2 155; test: Activation of NDH-2 in Mycobacterium smegmatis MC2 155 inverted membrane vesicles assessed as increase in oxygen consumption rate in presence of NADH by fluorespirometry
[8] = system: Mycobacterium tuberculosis; test: Antimycobacterial activity against Mycobacterium tuberculosis H37Rv incubated fro 96 hrs; assay type: functional

Structure (SMILES) | Activity [1] [V] | Activity [2] [V] | MIC [3] [µM] | Activity [4] [V] | Activity [5] [V] | MIC [6] [µM] | Activity [7] | MIC [8] [µM]
CCCCCCCCNC1=C(Cl)C(=O)c2cccnc2C1=O | -1.27 | -0.68 | 64 (≈ 20.5 µg/mL) | – | – | – | – | –
O=C1C(Nc2ccccc2)=C(Cl)C(=O)c2ncccc21 | -1.06 | -0.46 | > 512 | – | – | – | – | –
CCCNC1=C(Cl)C(=O)c2cccnc2C1=O | -1.16 | -0.59 | 128 (≈ 32.1 µg/mL) | – | – | – | – | –
CCCNC1=C(Cl)C(=O)c2ncccc2C1=O | -1.16 | -0.6 | 128 (≈ 32.1 µg/mL) | – | – | – | – | –
Cc1ccc2c(n1)C(=O)C(Cl)=C(N(C)C)C2=O | -1.11 | -0.62 | 512 (≈ 128 µg/mL) | – | – | – | – | –
CCCNC1=C(Cl)C(=O)c2ccc(C)nc2C1=O | -0.97 | -0.56 | 128 (≈ 33.9 µg/mL) | – | – | – | – | –
CCCCCCCCNC1=C(Cl)C(=O)c2ncccc2C1=O | -1.26 | -0.67 | 16 (≈ 5.13 µg/mL) | – | – | – | – | –
CCCCCCCc1ccc(NC2=C(Cl)C(=O)c3ncccc3C2=O)cc1 | -1.15 | -0.58 | 64 (≈ 24.5 µg/mL) | – | – | – | – | –
COc1ccc(CNC2=C(Cl)C(=O)c3cccnc3C2=O)cc1 | -1.24 | -0.63 | 16 (≈ 5.26 µg/mL) | – | – | – | – | –
CCCNC1=C(Cl)C(=O)c2nc(C)ccc2C1=O | -1.17 | -0.6 | 512 (≈ 136 µg/mL) | – | – | – | – | –
Cc1ccc2c(n1)C(=O)C(Cl)=C(N1CCCCC1)C2=O | -1.13 | -0.57 | 128 (≈ 37.2 µg/mL) | – | – | – | – | –
CCCCCCCCCCCCCCc1ccc(NC2=C(Cl)C(=O)c3ncccc3C2=O)cc1 | – | – | > 512 | -0.78 | -1.1 | – | – | –
COc1ccc(CNC2=C(Cl)C(=O)c3ccc(C)nc3C2=O)cc1 | -1.1 | -0.52 | 16 (≈ 5.48 µg/mL) | – | – | – | – | –
C#CCNC1=C(Cl)C(=O)c2nc(C)ccc2C1=O | -1.05 | -0.55 | 64 (≈ 16.7 µg/mL) | – | – | – | – | –
Cc1ccc2c(n1)C(=O)C(Nc1ccccc1)=C(Cl)C2=O | -0.9 | -0.44 | 256 (≈ 76.5 µg/mL) | – | – | – | – | –
C#CCNC1=C(Cl)C(=O)c2cccnc2C1=O | -1.07 | -0.49 | 128 (≈ 31.6 µg/mL) | – | – | – | – | –
CCCCCCCc1ccc(NC2=C(Cl)C(=O)c3cccnc3C2=O)cc1 | -1.08 | -0.57 | 32 (≈ 12.3 µg/mL) | – | – | – | – | –
COc1ccc(CNC2=C(Cl)C(=O)c3ncccc3C2=O)cc1 | -1.18 | -0.61 | 32 (≈ 10.5 µg/mL) | – | – | – | – | –

Structure (SMILES) | Activity [1] [V] | Activity [2] [V] | MIC [3] [µM] | Activity [4] [V] | Activity [5] [V] | MIC [6] [µM] | Activity [7] | MIC [8] [µM]
Cc1ccc2c(n1)C(=O)C(NC(C)(C)C)=C(Cl)C2=O | -1.1 | -0.59 | > 512 | – | – | – | – | –
O=C1C(Cl)=C(Nc2ccccc2)C(=O)c2ncccc21 | -1 | -0.42 | 512 (≈ 146 µg/mL) | – | – | – | – | –
O=C1C(NCCCl)=C(Cl)C(=O)c2ncccc21 | – | – | – | – | – | 8 (≈ 2.17 µg/mL) | – | –
C#CCNC1=C(Cl)C(=O)c2ncccc2C1=O | -1.1 | -0.5 | 8 (≈ 1.97 µg/mL) | – | – | – | Active | –
CCCCCCCCCCCCCCc1ccc(NC2=C(Cl)C(=O)c3cccnc3C2=O)cc1 | – | – | > 512 | -0.44 | -1 | – | – | –
Cc1ccc2c(n1)C(=O)C(NCCc1ccccc1)=C(Cl)C2=O | -1.3 | -0.7 | 16 (≈ 5.23 µg/mL) | – | – | – | – | –
Cc1ccc2c(n1)C(=O)C(N(C)C)=C(Cl)C2=O | -1.13 | -0.6 | > 512 | – | – | – | – | –
Cc1ccc2c(n1)C(=O)C(Cl)=C(NC(C)(C)C)C2=O | -1.25 | -0.69 | 256 (≈ 71.4 µg/mL) | – | – | – | – | –
CCCCCCCCNC1=C(Cl)C(=O)c2nc(C)ccc2C1=O | -1.27 | -0.72 | 128 (≈ 42.9 µg/mL) | – | – | – | – | –
Cc1ccc2c(n1)C(=O)C(N1CCCCC1)=C(Cl)C2=O | -1.17 | -0.61 | 256 (≈ 74.4 µg/mL) | – | – | – | – | –
CC1=CC(=O)c2ccccc2C1=O | -1.27 | -0.7 | – | – | – | – | – | –
Cc1ccc2c(n1)C(=O)C(Cl)=C(NCCc1ccccc1)C2=O | -1.3 | -0.73 | 128 (≈ 41.8 µg/mL) | – | – | – | – | –
NNC(=O)c1ccncc1 [ISONIAZID] | – | – | 0.2 (≈ 0.0274 µg/mL) | – | – | – | – | –
O=C1C(NC2CCCCCCC2)=CC(=O)c2ncccc21 | – | – | – | – | – | – | – | 3.5 (≈ 0.995 µg/mL)
O=C1C(Cl)=C(NCCc2ccccc2)C(=O)c2ncccc21 | -1.21 | -0.64 | 16 (≈ 5 µg/mL) | – | – | – | – | –
O=C1C(NCCc2ccccc2)=C(Cl)C(=O)c2ncccc21 | -1.15 | -0.6 | 128 (≈ 40 µg/mL) | – | – | – | – | –
Cc1ccc2c(n1)C(=O)C(Cl)=C(Nc1ccccc1)C2=O | -1.05 | -0.47 | 512 (≈ 153 µg/mL) | – | – | – | – | –
C#CCNC1=C(Cl)C(=O)c2ccc(C)nc2C1=O | -1.1 | -0.51 | 256 (≈ 66.7 µg/mL) | – | – | – | – | –
